Results as given in patent US9085555B2, “Complement pathway modulators and uses thereof” (priority 2011, dated 2015).

biological target: Factor D (Homo sapiens (Human), UniProt P00746); test: biochemical; assay type: biochemical; conditions: read-out: IC50
Sequence (P00746 26-253): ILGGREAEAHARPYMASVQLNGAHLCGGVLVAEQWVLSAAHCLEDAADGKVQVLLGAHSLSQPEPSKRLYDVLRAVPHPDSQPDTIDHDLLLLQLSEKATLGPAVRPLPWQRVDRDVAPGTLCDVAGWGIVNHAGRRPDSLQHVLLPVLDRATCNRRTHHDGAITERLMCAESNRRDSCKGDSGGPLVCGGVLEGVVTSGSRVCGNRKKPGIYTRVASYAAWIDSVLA

Question: For NC(=O)n1cc(NC(=O)N2[C@@H]3C[C@@H]3C[C@H]2C(=O)NCc2cccc(Cl)c2F)c2cc(OCCn3ccnc3)ccc21 [Example 389, 1R,3S,5R)-2-Aza-bicyclo[3.1.0]hexane-2,3-dicarboxylic acid 2-{[1-carbamoyl-5-(2-imidazol-1-yl-ethoxy)-1H-indol-3-yl]-amide}3-(3-chloro-2-fluoro-benzylamide], which IC50 is on record?
Answer: 30 nM

Question: Which IC50 does the source give for CC(C)(C)OC(=O)COc1ccc2c(c1)c(NC(=O)N1[C@@H]3C[C@@H]3C[C@H]1C(=O)NCc1ccccc1F)cn2C(N)=O [Example 390, (1-Carbamoyl-3-{[(1R,3S,5R)-3-(2-fluoro-benzylcarbamoyl)-2-aza-bicyclo[3.1.0]hexane-2-carbonyl]-amino}-1H-indol-5-yloxy)-acetic acid tert-butyl ester] here?
Answer: 38 nM

Question: Which IC50 does the source give for NC(=O)n1cc(NC(=O)N2[C@@H]3C[C@@H]3C[C@H]2C(=O)NCc2ccccc2F)c2cc(OCC(=O)O)ccc21 [Example 391, (1-Carbamoyl-3-{[(1R,3S,5R)-3-(2-fluoro-benzylcarbamoyl)-2-aza-bicyclo[3.1.0]hexane-2-carbonyl]-amino}-1H-indol-5-yloxy)-acetic acid] here?
Answer: 30 nM

Question: With NC(=O)n1cc(NC(=O)N2C3CC3C[C@H]2C(=O)NCc2cccc(Cl)c2F)c2ccc(O)cc21 (stereo partly drawn) [Example 392, 1R,3S,5R)-2-Aza-bicyclo[3.1.0]hexane-2,3-dicarboxylic acid 2-[(1-carbamoyl-6-hydroxy-1H-indol-3-yl)-amide]3-(3-chloro-2-fluoro-benzylamide] as the molecule, how does the IC50 read?
Answer: 7 nM

Question: How did the IC50 turn out when NC(=O)n1cc(NC(=O)N2C[C@H](F)C[C@H]2C(=O)NCc2cccc(Cl)c2F)c2ccc(O)cc21 [Example 393, 2S,4R)-4-Fluoro-pyrrolidine-1,2-dicarboxylic acid 1-[(1-carbamoyl-6-hydroxy-1H-indol-3-yl)-amide]2-(3-chloro-2-fluoro-benzylamide] was run?
Answer: 7 nM

Question: Which IC50 does the source give for COC(=O)COc1ccc2c(NC(=O)N3[C@@H]4C[C@@H]4C[C@H]3C(=O)NCc3cccc(Cl)c3F)cn(C(N)=O)c2c1 [Example 394, (1-Carbamoyl-3-{[(1R,3S,5R)-3-(3-chloro-2-fluoro-benzylcarbamoyl)-2-aza-bicyclo[3.1.0]hexane-2-carbonyl]-amino}-1H-indol-6-yloxy)-acetic acid methyl ester] here?
Answer: 70 nM

Question: Which IC50 does the source give for NC(=O)n1cc(NC(=O)N2C3CC3C[C@H]2C(=O)NCc2cccc(Cl)c2F)c2ccc(OCCO)cc21 (stereo partly drawn) [Example 395, 1R,3S,5R)-2-Aza-bicyclo[3.1.0]hexane-2,3-dicarboxylic acid 2-{[1-carbamoyl-6-(2-hydroxy-ethoxy)-1H-indol-3-yl]-amide}3-(3-chloro-2-fluoro-benzylamide] here?
Answer: 25 nM

Question: Which IC50 does the source give for NC(=O)n1cc(NC(=O)N2C[C@@H](N)C[C@H]2C(=O)Nc2cccc(OC(F)(F)F)c2)c2ccc(OCc3ccccc3)cc21 [Example 398, (2S,4S)-4-Amino-pyrrolidine-1,2-dicarboxylic acid 1-[(6-benzyloxy-1-carbamoyl-1H-indol-3-yl)-amide]2-[(3-trifluoromethoxy-phenyl)-amide]] here?
Answer: 3050 nM

Question: For NC(=O)n1cc(NC(=O)N2CCNC[C@H]2C(=O)NCc2cccc(Cl)c2)c2ccccc21 [Example 399, S)-piperazine-1,2-dicarboxylic acid 1-[(1-carbamoyl-1H-indol-3-yl)-amide]2-(3-chloro-benzylamide], which IC50 is on record?
Answer: 1600 nM

Question: Which IC50 does the source give for NCc1ccc(-c2cccc(NC(=O)[C@@H]3CCCN3C(=O)Nc3cn(C(N)=O)c4ccccc34)c2)cc1 [Example 400, (S)-Pyrrolidine-1,2-dicarboxylic acid 2-[(4′-aminomethyl-biphenyl-3-yl)-amide]1-[(1-carbamoyl-1H-indol-3-yl)-amide]] here?
Answer: 3950 nM

Question: For NCc1ccc(-c2cccc(NC(=O)[C@@H]3CCCN3C(=O)Nc3cn(C(N)=O)c4ccccc34)c2)c(F)c1 [Example 401, (S)-Pyrrolidine-1,2-dicarboxylic acid 2-[(4′-aminomethyl-2′-fluoro-biphenyl-3-yl)-amide]1-[(1-carbamoyl-1H-indol-3-yl)-amide]], which IC50 is on record?
Answer: 1050 nM

Question: NC[C@H]1CC[C@@H](C(=O)Nc2cccc(OC(F)(F)F)c2)N1C(=O)Nc1cn(C(N)=O)c2ccccc12 [Example 402, (2S,5R)-5-Aminomethyl-pyrrolidine-1,2-dicarboxylic acid 1-[(1-carbamoyl-1H-indol-3-yl)-amide]2-[(3-trifluoromethoxy-phenyl)-amide]] was tested. Which IC50 did it give?
Answer: 300 nM

Question: For NC[C@H]1C[C@@H](C(=O)Nc2cccc(OC(F)(F)F)c2)N(C(=O)Nc2cn(C(N)=O)c3ccccc23)C1 [Example 403, (2S,4R)-4-Aminomethyl-pyrrolidine-1,2-dicarboxylic acid 1-[(1-carbamoyl-1H-indol-3-yl)-amide]2-[(3-trifluoromethoxy-phenyl)-amide]], which IC50 is on record?
Answer: 1000 nM

Question: Which IC50 does the source give for NC[C@@H]1C[C@@H](C(=O)Nc2cccc(OC(F)(F)F)c2)N(C(=O)Nc2cn(C(N)=O)c3ccccc23)C1 [Example 404, (2S,4S)-4-Aminomethyl-pyrrolidine-1,2-dicarboxylic acid 1-[(1-carbamoyl-1H-indol-3-yl)-amide]2-[(3-trifluoromethoxy-phenyl)-amide]] here?
Answer: 1000 nM

Question: How did the IC50 turn out when NC[C@H]1C[C@@H](C(=O)NCc2cccc(Cl)c2F)N(C(=O)Nc2cn(C(N)=O)c3ccccc23)C1 [Example 405, 2S,4R)-4-Aminomethyl-pyrrolidine-1,2-dicarboxylic acid 1-[(1-carbamoyl-1H-indol-3-yl)-amide]2-(3-chloro-2-fluoro-benzylamide] was run?
Answer: 295 nM

Question: How did the IC50 turn out when CN(C)C[C@H]1C[C@@H](C(=O)NCc2cccc(Cl)c2F)N(C(=O)Nc2cn(C(N)=O)c3ccccc23)C1 [Example 406, 2S,4R)-4-Dimethylaminomethyl-pyrrolidine-1,2-dicarboxylic acid 1-[(1-carbamoyl-1H-indol-3-yl)-amide]2-(3-chloro-2-fluoro-benzylamide] was run?
Answer: 150 nM

Question: How did the IC50 turn out when NC[C@@]1(O)C[C@@H](C(=O)NCc2cccc(Cl)c2F)N(C(=O)Nc2cn(C(N)=O)c3ccccc23)C1 [Example 407, 2S,4S)-4-Aminomethyl-4-hydroxy-pyrrolidine-1,2-dicarboxylic acid 1-[(1-carbamoyl-1H-indol-3-yl)-amide]2-(3-chloro-2-fluoro-benzylamide] was run?
Answer: 1050 nM

Question: With NC[C@]1(F)C[C@@H](C(=O)NCc2cccc(Cl)c2F)N(C(=O)Nc2cn(C(N)=O)c3ccccc23)C1 [Example 408, 2S,4R)-4-Aminomethyl-4-fluoro-pyrrolidine-1,2-dicarboxylic acid 1-[(1-carbamoyl-1H-indol-3-yl)-amide]2-(3-chloro-2-fluoro-benzylamide] as the molecule, how does the IC50 read?
Answer: 1400 nM

Question: Which IC50 does the source give for NC[C@@]1(F)C[C@@H](C(=O)NCc2cccc(Cl)c2F)N(C(=O)Nc2cn(C(N)=O)c3ccccc23)C1 [Example 409, 2S,4S)-4-Aminomethyl-4-fluoro-pyrrolidine-1,2-dicarboxylic acid 1-[(1-carbamoyl-1H-indol-3-yl)-amide]2-(3-chloro-2-fluoro-benzylamide] here?
Answer: 25 nM

Question: How did the IC50 turn out when NC(=O)n1cc(NC(=O)N2C[C@@](F)(CNC=O)C[C@H]2C(=O)NCc2cccc(Cl)c2F)c2ccccc21 [Example 410, 2S,4S)-4-Fluoro-4-formylaminomethyl-pyrrolidine-1,2-dicarboxylic acid 1-[(1-carbamoyl-1H-indol-3-yl)-amide]2-(3-chloro-2-fluoro-benzylamide] was run?
Answer: 15 nM

Question: NC[C@@]1(F)C[C@@H](C(=O)NCc2c(F)ccc(Cl)c2F)N(C(=O)Nc2cn(C(N)=O)c3ccccc23)C1 [Example 411, (2S,4S)-4-aminomethyl-4-fluoro-pyrrolidine-1,2-dicarboxylic acid 1-[(1-carbamoyl-1H-indol-3-yl)-amide]2-(3-chloro-2,6-difluoro-benzylamide)] was tested. Which IC50 did it give?
Answer: 26 nM

Question: With CC(=O)n1cc(NC(=O)N2C[C@@](F)(CN)C[C@H]2C(=O)NCc2cccc(Cl)c2F)c2ccccc21 [Example 412, 2S,4S)-4-Aminomethyl-4-fluoro-pyrrolidine-1,2-dicarboxylic acid 1-[(1-acetyl-1H-indol-3-yl)-amide]2-(3-chloro-2-fluoro-benzylamide] as the molecule, how does the IC50 read?
Answer: 14 nM

Question: NC[C@@]1(F)C[C@@H](C(=O)N[C@H](CF)c2cccc(Br)c2)N(C(=O)Nc2cn(C(N)=O)c3ccccc23)C1 [Example 413, (2S,4S)-4-Aminomethyl-4-fluoro-pyrrolidine-1,2-dicarboxylic acid 2-{[(S)-1-(3-bromo-phenyl)-2-fluoro-ethyl]-amide}1-[(1-carbamoyl-1H-indol-3-yl)-amide]] was tested. Which IC50 did it give?
Answer: 101 nM

Question: For NC[C@@]1(F)C[C@@H](C(=O)Nc2cccc(OC(F)(F)F)c2)N(C(=O)Nc2cn(C(N)=O)c3ccccc23)C1 [Example 414, (2S,4S)-4-Aminomethyl-4-fluoro-pyrrolidine-1,2-dicarboxylic acid 1-[(1-carbamoyl-1H-indol-3-yl)-amide]2-[(3-trifluoromethoxy-phenyl)-amide]], which IC50 is on record?
Answer: 311 nM

Question: How did the IC50 turn out when NC(=O)n1cc(NC(=O)N2C[C@H](N)[C@@H](O)[C@H]2C(=O)NCc2cccc(Cl)c2F)c2ccccc21 [Example 416, 2S,3R,4S)-4-Amino-3-hydroxy-pyrrolidine-1,2-dicarboxylic acid 1-[(1-carbamoyl-1H-indol-3-yl)-amide]2-(3-chloro-2-fluoro-benzylamide] was run?
Answer: 315 nM

Question: For NC(=O)n1cc(NC(=O)N2CC[C@@H](N)[C@H]2C(=O)NCc2cccc(Cl)c2F)c2ccccc21 [Example 417, 2S,3R)-3-Amino-pyrrolidine-1,2-dicarboxylic acid 1-[(1-carbamoyl-1H-indol-3-yl)-amide]2-(3-chloro-2-fluoro-benzylamide], which IC50 is on record?
Answer: 40 nM

Question: With NC(=O)n1cc(NC(=O)N2CC[C@@H](N)[C@H]2C(=O)N[C@@H](c2cccc(Cl)c2F)C(F)(F)F)c2ccccc21 [Example 419, (2S,3R)-3-Amino-pyrrolidine-1,2-dicarboxylic acid 1-[(1-carbamoyl-1H-indol-3-yl)-amide]2-{[(S)-1-(3-chloro-2-fluoro-phenyl)-2,2,2-trifluoro-ethyl]-amide}] as the molecule, how does the IC50 read?
Answer: 476 nM

Question: For NC(=O)n1cc(NC(=O)N2CC[C@H](N)[C@H]2C(=O)NCc2cccc(Cl)c2F)c2ccccc21 [Example 420, 2S,3S)-3-Amino-pyrrolidine-1,2-dicarboxylic acid 1-[(1-carbamoyl-1H-indol-3-yl)-amide]2-(3-chloro-2-fluoro-benzylamide], which IC50 is on record?
Answer: 1150 nM
